SMILES strings stand for the structures.

In one experiment the target is T1, Androgen receptor (Homo sapiens, UniProt P10275).
T1 sequence (P10275 whole entry): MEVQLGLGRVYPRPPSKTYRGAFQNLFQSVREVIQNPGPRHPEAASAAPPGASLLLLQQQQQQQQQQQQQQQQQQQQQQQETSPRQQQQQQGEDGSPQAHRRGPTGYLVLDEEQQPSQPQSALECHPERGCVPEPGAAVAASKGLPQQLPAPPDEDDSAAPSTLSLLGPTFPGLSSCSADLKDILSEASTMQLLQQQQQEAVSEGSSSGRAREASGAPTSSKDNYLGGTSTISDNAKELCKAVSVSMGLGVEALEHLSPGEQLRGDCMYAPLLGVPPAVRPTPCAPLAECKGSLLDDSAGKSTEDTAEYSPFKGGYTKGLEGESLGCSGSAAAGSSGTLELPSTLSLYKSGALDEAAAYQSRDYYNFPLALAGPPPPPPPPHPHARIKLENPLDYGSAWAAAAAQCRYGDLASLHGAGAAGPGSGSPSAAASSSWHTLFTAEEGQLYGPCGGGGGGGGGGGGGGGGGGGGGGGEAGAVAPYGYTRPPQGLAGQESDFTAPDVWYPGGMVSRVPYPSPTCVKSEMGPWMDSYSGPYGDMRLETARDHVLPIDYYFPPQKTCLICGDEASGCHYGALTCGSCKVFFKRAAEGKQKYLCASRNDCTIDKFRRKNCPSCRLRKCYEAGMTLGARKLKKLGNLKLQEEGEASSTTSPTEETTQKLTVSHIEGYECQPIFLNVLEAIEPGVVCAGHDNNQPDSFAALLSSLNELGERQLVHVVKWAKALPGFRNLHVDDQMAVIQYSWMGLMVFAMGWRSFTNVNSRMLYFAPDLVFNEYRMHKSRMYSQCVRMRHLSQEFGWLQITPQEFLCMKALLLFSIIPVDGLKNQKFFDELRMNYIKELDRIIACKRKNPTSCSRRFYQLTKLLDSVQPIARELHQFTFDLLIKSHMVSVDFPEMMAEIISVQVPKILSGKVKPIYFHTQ

Experiment [1] has as its target T2, Muscarinic acetylcholine receptor M1 (Homo sapiens, UniProt P11229).
T2 sequence (P11229 whole entry): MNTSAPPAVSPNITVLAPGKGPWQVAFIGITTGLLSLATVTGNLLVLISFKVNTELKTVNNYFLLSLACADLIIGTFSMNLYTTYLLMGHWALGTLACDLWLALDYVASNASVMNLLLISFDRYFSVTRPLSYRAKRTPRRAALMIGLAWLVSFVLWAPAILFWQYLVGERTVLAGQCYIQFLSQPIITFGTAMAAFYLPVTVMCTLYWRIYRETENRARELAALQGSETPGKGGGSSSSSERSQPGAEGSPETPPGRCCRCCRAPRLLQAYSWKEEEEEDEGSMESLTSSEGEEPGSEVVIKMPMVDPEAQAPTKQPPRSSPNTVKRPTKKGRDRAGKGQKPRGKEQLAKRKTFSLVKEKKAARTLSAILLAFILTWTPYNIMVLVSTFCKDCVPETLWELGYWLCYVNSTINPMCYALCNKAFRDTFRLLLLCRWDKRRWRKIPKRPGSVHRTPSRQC
It counts as functional, cell-based.

Experiment [2] has as its target Prostaglandin G/H synthase 1 (Homo sapiens, UniProt P23219). It counts as functional.
Experiment [3] deals with Sodium-dependent noradrenaline transporter (Homo sapiens, UniProt P23975).
For experiment [4], the target named is Vascular endothelial growth factor receptor 2 (Homo sapiens, UniProt P35968). It counts as functional.
The next experiment has as its target Histamine H3 receptor (Homo sapiens, UniProt Q9Y5N1).
Experiment [5] addresses T3, Cannabinoid receptor 1 (Homo sapiens, UniProt P21554). The experiment is classed as functional, cell-based.
The next experiment has as its target T4, Adenosine receptor A1 (Homo sapiens, UniProt P30542).
T4 sequence (P30542 whole entry): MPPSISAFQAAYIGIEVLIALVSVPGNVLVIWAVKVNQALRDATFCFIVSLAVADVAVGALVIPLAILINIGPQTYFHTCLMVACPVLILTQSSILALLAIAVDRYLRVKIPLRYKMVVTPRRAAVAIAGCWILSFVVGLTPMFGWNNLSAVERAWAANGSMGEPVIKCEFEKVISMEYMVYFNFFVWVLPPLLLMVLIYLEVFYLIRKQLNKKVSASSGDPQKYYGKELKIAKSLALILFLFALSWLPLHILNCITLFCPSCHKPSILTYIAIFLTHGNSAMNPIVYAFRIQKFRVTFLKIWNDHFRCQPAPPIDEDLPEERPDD

The target of experiment [6] is T5, Alpha-1A adrenergic receptor (Homo sapiens, UniProt P35348).
T5 sequence (P35348 whole entry): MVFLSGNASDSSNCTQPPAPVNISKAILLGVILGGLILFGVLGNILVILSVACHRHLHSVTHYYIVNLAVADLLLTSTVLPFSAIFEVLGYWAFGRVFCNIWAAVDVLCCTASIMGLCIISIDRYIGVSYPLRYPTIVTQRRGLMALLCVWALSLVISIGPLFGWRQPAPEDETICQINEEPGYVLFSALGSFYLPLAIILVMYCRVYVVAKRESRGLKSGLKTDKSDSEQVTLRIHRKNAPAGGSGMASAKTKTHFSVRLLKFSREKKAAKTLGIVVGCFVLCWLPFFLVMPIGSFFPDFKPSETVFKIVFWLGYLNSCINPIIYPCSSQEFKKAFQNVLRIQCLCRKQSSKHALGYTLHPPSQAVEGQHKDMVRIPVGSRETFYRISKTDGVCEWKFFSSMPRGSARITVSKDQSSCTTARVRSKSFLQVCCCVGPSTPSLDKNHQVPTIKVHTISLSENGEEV

In experiment [7] the target is T3, Cannabinoid receptor 1.
Note: assay procedure not described here.

Chain of Histamine H3 receptor (Q9Y5N1 whole entry): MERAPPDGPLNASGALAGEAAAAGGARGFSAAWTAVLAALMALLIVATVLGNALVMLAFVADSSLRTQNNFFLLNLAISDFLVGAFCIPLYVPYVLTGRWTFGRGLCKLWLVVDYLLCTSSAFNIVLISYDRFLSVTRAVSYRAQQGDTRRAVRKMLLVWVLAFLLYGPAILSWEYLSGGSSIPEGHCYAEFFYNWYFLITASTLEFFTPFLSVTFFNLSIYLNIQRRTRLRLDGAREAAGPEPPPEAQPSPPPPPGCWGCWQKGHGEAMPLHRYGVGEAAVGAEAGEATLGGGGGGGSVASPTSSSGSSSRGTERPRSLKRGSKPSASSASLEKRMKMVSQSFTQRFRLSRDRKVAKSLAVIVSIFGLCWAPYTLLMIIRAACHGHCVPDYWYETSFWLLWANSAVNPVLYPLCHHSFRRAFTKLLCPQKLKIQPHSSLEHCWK
Chain of Prostaglandin G/H synthase 1 (P23219 whole entry): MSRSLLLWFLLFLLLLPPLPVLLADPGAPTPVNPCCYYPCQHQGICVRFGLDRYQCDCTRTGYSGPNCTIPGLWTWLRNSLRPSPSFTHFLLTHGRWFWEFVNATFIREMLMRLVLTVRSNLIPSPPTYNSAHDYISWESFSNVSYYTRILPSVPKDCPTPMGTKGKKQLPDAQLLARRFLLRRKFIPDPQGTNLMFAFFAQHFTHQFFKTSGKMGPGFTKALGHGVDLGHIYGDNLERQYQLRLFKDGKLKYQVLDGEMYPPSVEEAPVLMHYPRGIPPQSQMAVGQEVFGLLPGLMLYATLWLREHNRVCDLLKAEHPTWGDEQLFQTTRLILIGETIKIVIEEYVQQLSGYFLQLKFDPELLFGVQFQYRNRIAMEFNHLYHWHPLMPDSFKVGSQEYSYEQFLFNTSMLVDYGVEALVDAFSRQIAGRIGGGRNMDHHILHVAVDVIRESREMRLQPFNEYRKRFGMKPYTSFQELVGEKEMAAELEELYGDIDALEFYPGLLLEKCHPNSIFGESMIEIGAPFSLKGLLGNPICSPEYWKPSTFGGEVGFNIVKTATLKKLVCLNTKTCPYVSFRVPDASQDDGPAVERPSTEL
Chain of Sodium-dependent noradrenaline transporter (P23975 whole entry): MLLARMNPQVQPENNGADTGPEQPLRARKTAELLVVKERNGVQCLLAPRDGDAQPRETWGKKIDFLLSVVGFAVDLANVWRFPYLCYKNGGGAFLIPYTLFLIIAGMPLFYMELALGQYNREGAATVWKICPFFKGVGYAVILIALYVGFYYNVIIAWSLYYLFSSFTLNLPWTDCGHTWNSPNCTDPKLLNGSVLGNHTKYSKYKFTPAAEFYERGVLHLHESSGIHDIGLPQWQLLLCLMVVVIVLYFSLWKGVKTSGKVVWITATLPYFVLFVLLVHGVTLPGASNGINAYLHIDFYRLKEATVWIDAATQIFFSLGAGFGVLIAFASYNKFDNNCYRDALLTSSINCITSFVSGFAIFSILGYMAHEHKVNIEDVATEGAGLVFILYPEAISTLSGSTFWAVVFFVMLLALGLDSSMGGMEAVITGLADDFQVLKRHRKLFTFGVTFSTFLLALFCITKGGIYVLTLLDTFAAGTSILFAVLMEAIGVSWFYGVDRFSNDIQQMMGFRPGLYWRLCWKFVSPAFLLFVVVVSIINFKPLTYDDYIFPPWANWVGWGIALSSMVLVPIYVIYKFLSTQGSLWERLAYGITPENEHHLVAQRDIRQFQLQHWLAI
T3 sequence (P21554 whole entry): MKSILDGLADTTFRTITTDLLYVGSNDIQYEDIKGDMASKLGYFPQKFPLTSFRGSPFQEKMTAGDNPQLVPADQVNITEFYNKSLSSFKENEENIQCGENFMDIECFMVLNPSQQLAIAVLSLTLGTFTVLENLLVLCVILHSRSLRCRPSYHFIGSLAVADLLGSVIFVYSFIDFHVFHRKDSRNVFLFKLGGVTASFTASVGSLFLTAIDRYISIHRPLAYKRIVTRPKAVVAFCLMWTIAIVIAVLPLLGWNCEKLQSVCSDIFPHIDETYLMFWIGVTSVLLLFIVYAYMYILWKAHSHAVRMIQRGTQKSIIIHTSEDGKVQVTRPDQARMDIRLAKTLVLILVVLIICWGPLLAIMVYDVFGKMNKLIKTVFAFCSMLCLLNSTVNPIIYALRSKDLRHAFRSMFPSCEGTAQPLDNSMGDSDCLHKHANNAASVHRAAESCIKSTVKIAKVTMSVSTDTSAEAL
Chain of Vascular endothelial growth factor receptor 2 (P35968 whole entry): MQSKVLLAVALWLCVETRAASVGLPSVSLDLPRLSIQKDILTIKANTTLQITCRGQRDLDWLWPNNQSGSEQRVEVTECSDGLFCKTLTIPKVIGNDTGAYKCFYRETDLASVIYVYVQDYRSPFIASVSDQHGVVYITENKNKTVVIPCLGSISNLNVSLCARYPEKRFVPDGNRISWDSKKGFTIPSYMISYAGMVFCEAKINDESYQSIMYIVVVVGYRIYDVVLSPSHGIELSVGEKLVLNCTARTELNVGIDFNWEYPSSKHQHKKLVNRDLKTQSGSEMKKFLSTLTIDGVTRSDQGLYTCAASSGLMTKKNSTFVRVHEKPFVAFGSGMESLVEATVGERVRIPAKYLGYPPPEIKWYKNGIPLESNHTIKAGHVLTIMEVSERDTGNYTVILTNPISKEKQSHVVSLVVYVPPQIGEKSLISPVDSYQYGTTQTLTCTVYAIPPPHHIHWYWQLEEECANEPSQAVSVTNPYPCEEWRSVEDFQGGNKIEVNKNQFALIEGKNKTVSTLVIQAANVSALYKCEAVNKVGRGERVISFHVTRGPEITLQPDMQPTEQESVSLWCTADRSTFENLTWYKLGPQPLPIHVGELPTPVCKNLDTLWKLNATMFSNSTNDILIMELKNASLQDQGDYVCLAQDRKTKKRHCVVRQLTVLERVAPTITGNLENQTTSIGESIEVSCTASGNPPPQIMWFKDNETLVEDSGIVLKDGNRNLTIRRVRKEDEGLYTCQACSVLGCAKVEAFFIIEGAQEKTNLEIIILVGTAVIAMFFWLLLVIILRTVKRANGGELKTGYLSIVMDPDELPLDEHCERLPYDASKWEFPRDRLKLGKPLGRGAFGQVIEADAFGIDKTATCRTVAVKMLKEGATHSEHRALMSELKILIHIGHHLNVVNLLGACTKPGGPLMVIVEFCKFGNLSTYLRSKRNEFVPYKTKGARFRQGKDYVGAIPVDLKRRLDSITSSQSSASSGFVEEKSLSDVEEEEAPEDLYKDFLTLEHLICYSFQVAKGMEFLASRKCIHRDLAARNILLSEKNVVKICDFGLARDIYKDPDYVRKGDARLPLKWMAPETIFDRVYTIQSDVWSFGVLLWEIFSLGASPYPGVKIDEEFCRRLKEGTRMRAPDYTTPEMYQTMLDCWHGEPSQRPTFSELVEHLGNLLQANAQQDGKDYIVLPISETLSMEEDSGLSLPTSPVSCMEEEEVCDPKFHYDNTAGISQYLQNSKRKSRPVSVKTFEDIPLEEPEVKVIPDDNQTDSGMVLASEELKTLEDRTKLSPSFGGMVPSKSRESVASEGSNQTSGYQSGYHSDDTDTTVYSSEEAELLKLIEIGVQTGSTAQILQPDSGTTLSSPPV

As a reminder, the AC50 is the midpoint of the concentration-response curve, whichever way the signal moves. A lower AC50 goes with greater potency. On to `O=c1[nH]c2ccccc2n1CCN1CCN(c2cccc(C(F)(F)F)c2)CC1` [FLIBANSERIN], for which the AC50 on Androgen receptor was above 30 µM; in [1], 10.1 µM; in [2], above 30 µM; in experiment [3], above 30 µM.

With `CO[C@@H]1[C@@H](OC(N)=O)[C@@H](O)[C@H](Oc2ccc3c(O)c(NC(=O)c4ccc(O)c(CC=C(C)C)c4)c(=O)oc3c2C)OC1(C)C` [NOVOBIOCIN], the AC50 in experiment [4] was 25 µM; on Histamine H3 receptor it was above 30 µM; at Cannabinoid receptor 1 [5] it was above 30 µM.

As for `COc1cc2c(cc1OC)C1CC(=O)C(CC(C)C)CN1CC2` (configuration not stated) [TETRABENAZINE], the AC50 (in experiment [4]; at Histamine H3 receptor; on Cannabinoid receptor 1 [5]) was above 30 µM in each case.

With `COc1cccc2c1C(=O)c1c(O)c3c(c(O)c1C2=O)C[C@@](O)(C(=O)CO)C[C@@H]3O[C@H]1C[C@H](N)[C@H](O[C@@H]2CCCCO2)[C@H](C)O1` [PIRARUBICIN], the AC50 on Androgen receptor was above 30 µM; in [1] it was above 1 µM; in experiment [2], 0.5 µM; in experiment [3] it was above 30 µM; on Adenosine receptor A1, above 30 µM.

With `CCCCCCCCCCCCCCCC(=O)OC[C@H](COP(=O)([O-])OCC[N+](C)(C)C)OC(=O)CCCCCCCCCCCCCCC` [COLFOSCERIL PALMITATE], the AC50 (on Androgen receptor; in [1]; in [2]; in [3]; on Adenosine receptor A1) was above 30 µM throughout.

Turning to `CN(C)CCN(Cc1ccccc1)c1ccccn1` [TRIPELENNAMINE], the half-maximal activity concentration (AC50) in experiment [1] was above 30 µM; in experiment [6], 10.8 µM; in experiment [2], above 30 µM; in experiment [3], 2.62 µM; at Cannabinoid receptor 1 [7], above 10 µM.

With `O=c1[nH]cc(F)c(=O)[nH]1` [FLUOROURACIL], the AC50 (at Histamine H3 receptor; in [2]; in experiment [3]; at Adenosine receptor A1) was above 30 µM each time.

As to `CO[C@@]1(NC(=O)C(C(=O)O)c2ccc(O)cc2)C(=O)N2C(C(=O)O)=C(CSc3nnnn3C)CO[C@@H]21` (some centres not stated) [MOXALACTAM], the AC50 in experiment [1] is above 30 µM; in experiment [2], 9.25 µM; in experiment [3], above 30 µM; at Adenosine receptor A1, above 30 µM.

`Cc1c(C)c2c(c(C)c1O)CCC(C)(COc1ccc(CC3SC(=O)NC3=O)cc1)O2` (configuration not stated) [TROGLITAZONE]: the concentration at half-maximal activity (AC50) on Androgen receptor is 5.72 µM; on Histamine H3 receptor it was above 30 µM; on Cannabinoid receptor 1 [5] it was above 30 µM; in [6], 12.5 µM; in experiment [2] it was 5.93 µM; in experiment [3], 4.11 µM. This compound gave an AC50 at Cannabinoid receptor 1 [7] above 30 µM.

As to `OC[C@H]1NC[C@H](O)[C@@H](O)[C@H]1O`, the AC50 (on Androgen receptor; in [1]; in experiment [2]; in experiment [3]; at Adenosine receptor A1) was above 30 µM in each case.

In the case of `CN(C)CCCC1(c2ccc(F)cc2)OCc2cc(C#N)ccc21` (configuration not stated) [CITALOPRAM], the AC50 at Histamine H3 receptor is above 10 µM; on Cannabinoid receptor 1 [5], above 30 µM; in experiment [2], above 30 µM; on Cannabinoid receptor 1 [7], above 10 µM; on Adenosine receptor A1, above 30 µM.

For the compound `O=C(O)[C@@H](S)[C@@H](S)C(=O)O`, the AC50 (in experiment [2]; in experiment [3]; on Adenosine receptor A1) was above 30 µM throughout.

For the compound `CC#CC(=O)N1CCC[C@H]1c1nc(-c2ccc(C(=O)Nc3ccccn3)cc2)c2c(N)nccn12` [ACALABRUTINIB], the AC50 (at Androgen receptor; in experiment [1]; in [2]; in experiment [3]; at Adenosine receptor A1) was above 30 µM in each case.

In the case of `N#Cc1ccnc(N2C(=O)CC[C@H]2C(=O)N(c2cncc(F)c2)[C@H](C(=O)NC2CC(F)(F)C2)c2ccccc2Cl)c1` [IVOSIDENIB], the AC50 (at Androgen receptor; in experiment [1]; in experiment [2]; in experiment [3]) was above 30 µM throughout.

Take `C#CCN(C)Cc1ccccc1` [PARGYLINE]: the AC50 (on Cannabinoid receptor 1 [5]; in experiment [2]; in experiment [3]; on Adenosine receptor A1) was above 30 µM in each case.

Turning to `CC(C)(Oc1ccc(Cl)cc1)C(=O)NC(=O)NCN1CCOCC1` [PLAFIBRIDE], the AC50 (on Androgen receptor; in [1]; in experiment [2]; in experiment [3]) was above 30 µM in each case.

As for `CCCCCCO[C@@H](C)c1cccc(-c2csc(NC(=O)c3cc(Cl)c(/C=C(\C)C(=O)O)c(Cl)c3)n2)c1OC` [LUSUTROMBOPAG], the AC50 is above 30 µM at Androgen receptor; above 30 µM in experiment [1]; 2.15 µM in experiment [2]; above 30 µM in experiment [3]; above 30 µM at Adenosine receptor A1.

On to `O=C(Cc1cccs1)N[C@@H]1C(=O)N2C(C(=O)[O-])=C(C[n+]3ccccc3)CS[C@H]12` [CEPHALORIDINE], for which the AC50 on Androgen receptor was above 30 µM; on Cannabinoid receptor 1 [5], above 30 µM; in experiment [2] it was 16.4 µM; in experiment [3], above 30 µM; on Adenosine receptor A1, above 30 µM.

As for `NC(=O)C1(N2CCCCC2)CCN(CCCN2c3ccccc3CCc3ccccc32)CC1` [CARPIPRAMINE], the AC50 is above 30 µM on Androgen receptor, 22 µM in [1], above 30 µM in [2] and 11.7 µM in experiment [3].

For `CC(C)NC[C@H](O)COc1ccc(O)cc1` [PRENALTEROL], the AC50 was above 30 µM at Androgen receptor, above 30 µM in [1], 8.99 µM in experiment [2] and 4.55 µM in experiment [3].

For `Cc1cc(C)cc(OCC2CNC(=O)O2)c1` (configuration not stated) [METAXALONE], the AC50 in [1] is above 30 µM; in [2] it was above 30 µM; in experiment [3], 10.2 µM.

For `Cc1ccc(C(C)C)c(O)c1` [THYMOL], the concentration at half-maximal activity (AC50) was above 30 µM in experiment [1], above 30 µM in experiment [2] and 23.3 µM in experiment [3].

Turning to `C[C@]12CC[C@@H]3c4ccc(OC(=O)N(CCCl)CCCl)cc4CC[C@H]3[C@@H]1CC[C@@H]2OP(=O)(O)O` [ESTRAMUSTINE PHOSPHATE], the AC50 (on Androgen receptor; in [1]; in [2]; in [3]) was above 30 µM in each case.

With `C[C@@H](CN1CC(=O)NC(=O)C1)N1CC(=O)NC(=O)C1` [DEXRAZOXANE], the AC50 at Androgen receptor was above 30 µM; in [1], above 30 µM; in experiment [2], 2.16 µM; in experiment [3], above 30 µM.

The record behind these values is ChEMBL document CHEMBL5291721, “A preclinical secondary pharmacology resource illuminates target-adverse drug reaction associations of marketed drugs” (Nat Commun, 2023).
